Key:
Format in all cases: physicochemical
[1] = Hygroscopicity classification applying the Pharmacopeia rules
Text: The shear cell was fully filled with a sample of powder of the compound of formula (I) thereby preventing condensing the powder. Both samples, sample 1 and sample 2, were classified as non-hydroscopic applying the Pharmacopeia rules.

[2] = Thermodynamic stability of the polymorphic forms; conditions: between 0° C. and 80° C.
[3] = Schulze ring shear test (flow properties); conditions: normal load 1.5 kPa, 24° C., humidity 30%, no storage time
Text: The device used is the Schulze ring shear tester RST-XS.s for which a general technical product information is available on http://www.dietmar-schulze.de. We were using the shear cell XS-SV3. A statement referring to the testing procedure from the technical product information for RST-XS.s reads as follows: • “Testing procedure: The powder sample is contained in an annular shear cell “(FIG. 19B). • “A vertical load ? N] is applied through a thin loading rod on the annular lid. To shear the sample, the shear cell rotates relative to the lid (direction ω), and the torque necessary for shearing is determined from forces and F1 and F2 acting in a tie rod and a push rod. Following a well-defined procedure, which is executed computer-controlled, the flow properties are measured. […]
During the shear test, the bottom ring slowly rotated in the direction of the arrow with the low rotational speed ω of 2 rpm maximum. Rotation of the lid was prevented by the tension rods; the tensile forces F1 and F2 necessary to achieve this are measured by the load cells. From the normal and shear forces respectively stresses, the so-called yield locus was determined, which describes the flow behavior of a bulk solid. […]
The experimental data obtained were analyzed following the method described in Schulze, D. (2008). […] FIG. 21 provides the flow factor of both samples as calculated on basis of the ring shear experiment. […]

hygroscopicity classification [1]: non-hydroscopic
thermodynamic stability [2]: thermodynamically stable form
flow behaviour (flow factor ffc) [3]: flowing a bit better than polymorph A
SMILES: C[C@@H]1OC(=O)NN=C1c1ccc(-c2ccc(F)cc2)c(C(F)(F)F)c1 [polymorph C, (6S)-5-[4′-Fluoro-2-(trifluoromethyl)biphenyl-4-yl]-6-methyl-3,6-dihydro-2H-1,3,4-oxadiazin-2-one]
